Values quoted from earlier work in patent US20140107130A1, “Oral Solution Formulations of Aripiprazole” (Antrim Pharmaceuticals, LLC, priority 2012, published 2014).

Legend:
[1] = room temperature
[2] = intramuscular (IM) injectable solution; many water-miscible co-solvent and water-immiscible solvent/co-solvent systems

Structure (SMILES): O=C1CCc2ccc(OCCCCN3CCN(c4cccc(Cl)c4Cl)CC3)cc2N1 [Aripiprazole]
- aqueous solubility [1]: < 1 µg/mL
- tissue irritation at the muscular site [2]: unacceptable (moderate to severe) tissue irritation
